Columns and labels:
[1] = biological target: T1, Discoidin domain-containing receptor 2 (Homo sapiens) (UniProt Q16832); settings: at 10 µM
T1 sequence (whole entry): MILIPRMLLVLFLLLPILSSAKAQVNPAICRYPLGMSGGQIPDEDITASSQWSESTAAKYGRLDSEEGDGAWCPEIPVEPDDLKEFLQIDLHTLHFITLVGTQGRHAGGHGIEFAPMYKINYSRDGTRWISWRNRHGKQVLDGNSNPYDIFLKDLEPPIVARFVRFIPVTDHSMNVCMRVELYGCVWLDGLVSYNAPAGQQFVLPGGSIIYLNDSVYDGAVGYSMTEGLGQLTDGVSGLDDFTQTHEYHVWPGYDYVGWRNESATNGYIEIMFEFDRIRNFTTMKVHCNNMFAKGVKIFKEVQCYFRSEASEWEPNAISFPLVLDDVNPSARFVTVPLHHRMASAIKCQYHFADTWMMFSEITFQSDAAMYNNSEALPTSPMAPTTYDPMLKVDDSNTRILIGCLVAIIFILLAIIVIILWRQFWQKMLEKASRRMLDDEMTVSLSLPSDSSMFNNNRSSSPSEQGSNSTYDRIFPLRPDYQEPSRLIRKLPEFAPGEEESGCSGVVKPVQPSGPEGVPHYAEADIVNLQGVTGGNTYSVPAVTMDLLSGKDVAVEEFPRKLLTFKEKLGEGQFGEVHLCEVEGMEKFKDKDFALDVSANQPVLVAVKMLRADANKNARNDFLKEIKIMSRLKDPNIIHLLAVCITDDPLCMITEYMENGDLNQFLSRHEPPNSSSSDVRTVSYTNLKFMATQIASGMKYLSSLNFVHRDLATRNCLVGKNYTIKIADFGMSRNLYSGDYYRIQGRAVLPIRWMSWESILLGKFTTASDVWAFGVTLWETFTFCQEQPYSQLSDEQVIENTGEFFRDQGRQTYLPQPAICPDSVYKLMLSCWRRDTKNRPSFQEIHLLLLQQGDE

[2] = biological target: T2, Mitogen-activated protein kinase kinase kinase kinase 2 (Homo sapiens) (UniProt Q12851); experiment: Selectivity interaction (ProQinase) EUB0000171b MAP4K2
T2 sequence (whole entry): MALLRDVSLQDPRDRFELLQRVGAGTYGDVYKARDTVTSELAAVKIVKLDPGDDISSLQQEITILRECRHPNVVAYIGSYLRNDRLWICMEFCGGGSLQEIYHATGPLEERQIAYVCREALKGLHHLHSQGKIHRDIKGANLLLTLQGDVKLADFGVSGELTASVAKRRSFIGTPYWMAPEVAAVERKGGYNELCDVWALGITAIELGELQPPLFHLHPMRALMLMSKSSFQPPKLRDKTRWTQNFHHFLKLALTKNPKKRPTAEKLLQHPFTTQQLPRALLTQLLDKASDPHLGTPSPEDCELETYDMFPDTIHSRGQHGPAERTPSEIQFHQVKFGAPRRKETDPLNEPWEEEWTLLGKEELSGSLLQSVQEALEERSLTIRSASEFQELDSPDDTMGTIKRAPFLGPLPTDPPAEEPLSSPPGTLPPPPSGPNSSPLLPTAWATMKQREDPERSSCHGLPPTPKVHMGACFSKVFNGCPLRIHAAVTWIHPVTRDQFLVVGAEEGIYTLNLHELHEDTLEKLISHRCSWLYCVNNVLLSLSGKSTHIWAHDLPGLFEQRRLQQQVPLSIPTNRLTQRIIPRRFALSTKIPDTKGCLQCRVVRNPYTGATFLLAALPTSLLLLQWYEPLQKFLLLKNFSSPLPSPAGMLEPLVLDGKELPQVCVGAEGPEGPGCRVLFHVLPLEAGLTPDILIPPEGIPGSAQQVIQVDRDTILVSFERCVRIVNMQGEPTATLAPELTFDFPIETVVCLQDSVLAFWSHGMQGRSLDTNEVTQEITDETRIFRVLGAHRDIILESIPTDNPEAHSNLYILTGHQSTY

[3] = biological target: Ribosomal protein S6 kinase alpha-2 (Homo sapiens) (UniProt Q15349); experiment: Selectivity interaction (ActivX KiNativ screen (ex vivo kinase selectivity in human PBMCs)) EUB0001619a RPS6KA2; type: cell-based; settings: PBMC, at 1 µM
[4] = biological target: T3, Protein kinase C zeta type (Homo sapiens) (UniProt Q05513); experiment: Selectivity interaction (ActivX KiNativ screen (kinase selectivity in THP-1 cell lysates)) EUB0000639a PRKCZ; type: subcellular; settings: lysate
T3 sequence (whole entry): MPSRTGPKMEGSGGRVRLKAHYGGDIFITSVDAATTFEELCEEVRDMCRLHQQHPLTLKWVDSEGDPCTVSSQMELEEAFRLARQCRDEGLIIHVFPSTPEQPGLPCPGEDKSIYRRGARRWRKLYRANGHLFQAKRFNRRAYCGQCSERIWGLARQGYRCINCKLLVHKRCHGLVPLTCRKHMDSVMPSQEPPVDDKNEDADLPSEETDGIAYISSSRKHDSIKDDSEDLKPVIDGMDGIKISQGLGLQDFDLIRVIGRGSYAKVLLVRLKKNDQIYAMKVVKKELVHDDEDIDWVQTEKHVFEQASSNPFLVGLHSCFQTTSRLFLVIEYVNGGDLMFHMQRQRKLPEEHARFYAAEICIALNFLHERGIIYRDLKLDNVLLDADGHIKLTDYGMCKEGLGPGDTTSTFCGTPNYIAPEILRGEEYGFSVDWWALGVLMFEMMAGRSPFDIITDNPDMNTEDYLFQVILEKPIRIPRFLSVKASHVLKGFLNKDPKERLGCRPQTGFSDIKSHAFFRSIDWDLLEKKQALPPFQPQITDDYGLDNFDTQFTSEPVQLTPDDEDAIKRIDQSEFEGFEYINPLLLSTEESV

[5] = biological target: T4, Testis-specific serine/threonine-protein kinase 1 (Homo sapiens) (UniProt Q9BXA7); experiment: Selectivity interaction (KinomeScan (DiscoverX)) EUB0000655a TSSK1A; settings: at 10 µM
T4 sequence (whole entry): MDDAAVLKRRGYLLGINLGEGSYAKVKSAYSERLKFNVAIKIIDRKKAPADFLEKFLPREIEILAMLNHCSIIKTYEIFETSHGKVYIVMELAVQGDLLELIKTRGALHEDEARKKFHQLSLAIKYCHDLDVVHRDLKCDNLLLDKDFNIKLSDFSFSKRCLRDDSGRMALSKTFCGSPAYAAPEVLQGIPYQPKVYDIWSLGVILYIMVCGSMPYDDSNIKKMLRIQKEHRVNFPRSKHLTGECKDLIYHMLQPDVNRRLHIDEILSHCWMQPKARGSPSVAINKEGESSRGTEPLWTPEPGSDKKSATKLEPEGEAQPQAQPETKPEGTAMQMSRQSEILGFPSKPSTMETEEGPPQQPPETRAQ

Sequence of Ribosomal protein S6 kinase alpha-2 (Homo sapiens) (Q15349 whole entry): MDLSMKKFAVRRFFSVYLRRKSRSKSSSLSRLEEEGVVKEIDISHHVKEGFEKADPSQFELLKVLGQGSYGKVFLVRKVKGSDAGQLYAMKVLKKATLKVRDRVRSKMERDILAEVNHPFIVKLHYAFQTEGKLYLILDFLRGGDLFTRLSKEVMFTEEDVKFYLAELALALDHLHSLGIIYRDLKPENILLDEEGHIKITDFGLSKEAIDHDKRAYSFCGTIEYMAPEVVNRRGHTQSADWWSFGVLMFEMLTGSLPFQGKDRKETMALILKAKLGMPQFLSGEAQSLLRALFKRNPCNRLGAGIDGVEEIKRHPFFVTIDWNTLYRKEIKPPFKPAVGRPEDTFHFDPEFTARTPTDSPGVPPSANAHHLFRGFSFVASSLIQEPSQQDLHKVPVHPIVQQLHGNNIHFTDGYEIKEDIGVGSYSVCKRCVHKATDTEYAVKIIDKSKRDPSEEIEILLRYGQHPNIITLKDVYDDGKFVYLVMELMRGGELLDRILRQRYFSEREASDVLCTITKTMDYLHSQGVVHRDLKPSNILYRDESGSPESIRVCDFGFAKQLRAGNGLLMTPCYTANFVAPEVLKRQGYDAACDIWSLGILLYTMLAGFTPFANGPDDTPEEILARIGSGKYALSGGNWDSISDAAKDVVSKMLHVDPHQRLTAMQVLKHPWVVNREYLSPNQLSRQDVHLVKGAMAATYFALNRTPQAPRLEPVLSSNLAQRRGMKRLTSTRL

Compound: COCC(=O)NC/C=C/c1ccc2ncnc(Nc3ccc(Oc4ccc(C)nc4)c(C)c3)c2c1 [CP-724714]
- % of control [1]: 100%

Compound: C=CC(=O)Nc1cccc(C(=O)Nc2ccc(Nc3cc(-c4[nH]c(SC)nc4C)ccn3)cc2)c1
- % of control ([2]; at 1 µM): 89%
- % of control ([2]; at 5 µM): 50%

Compound: N#Cc1cccc(-c2c[nH]c3ncnc(N4CCOCC4)c23)c1
- % of inhibition [3]: 13%

Compound: CC[C@@H]1[C@H](F)C(=O)N[C@@H]1COc1nccc2cc(C(N)=O)c(OC)cc12 [ZIMLOVISERTIB]
- % of inhibition ([4]; at 0.01 µM): 8.5%
- % of inhibition ([4]; at 0.04 µM): -2.3%
- % of inhibition ([4]; at 0.2 µM): -7.6%
- % of inhibition ([4]; at 1 µM): 6.9%
- % of inhibition ([4]; at 5 µM): -26.2%

Compound: CN(C)CCOc1ccc(-c2nc(-c3ccncc3)c(-c3ccc4c(c3)CC/C4=N\O)[nH]2)cc1
- % of control [5]: 86%

Source: ChEMBL document CHEMBL5465560, “Selectivity Literature for EUbOPEN Chemogenomic Library” (2024)
